Entries after “also recorded” stand apart in the source; their conditions may differ.
Target: T1, recombinant tau oligomers (TauO) (Homo sapiens, UniProt P10636)
T1 construct: made in house
Experiment: Direct ELISA of recombinant tau oligomers with and without compounds
Assay type: biochemical
Settings: increased concentration of curcumin
Protocol: ELISA assay was conducted as previously described (Lasagna-Reeves, Castillo-Carranza et al. 2010). […] After washing three times with TBS-T, plates were blocked for 1 hour at 37° C. with 120 μl of 10% non-fat milk in TBS-T. Plates were then washed three times with TBS-T, before probing with 100 μL of primary antibodies for 1 hour at 37° C., T22 (diluted 1:250 in 5% non-fat milk in TBS-T) and Tau 5 (diluted 1:10000 in 5% non-fat milk in TBS-T), respectively . Plates were then washed three times with TBS-T, and probed with 100 μL of horseradish peroxidase-conjugated anti-rabbit or anti-mouse IgG (Promega, Madison, WI) (diluted 1:10000 in 5% non-fat milk in TBS-T). After 1 hour of incubation at 37° C., plates were washed three times with TBS-T and developed with 3, 3, 5, 5-tetramethylbenzidine (TMB-lcomponent substrate, KPL, Gaithersburg, MD). The reaction was stopped by using 100 μL 1M HCl and samples were read at 450 nm using POLARstar OMEGA plate reader. All measurements were performed in triplicate
Compounds were dissolved in ETOH 75%/DMSO (5:1) at a final concentration of 5 mM and diluted in 1× PBS or ddH2O for incubation or toxicity assay (final concentration 5 μM). […]
ELISA assay was conducted as previously described (Lasagna-Reeves, Castillo-Carranza et al. 2010). […] The reaction was stopped using 100 μl of 1M HCl and absorbance was read at 450 nm using POLARstar OMEGA plate reader. […]

T1 sequence (P10636 1-441 isoform P10636-8): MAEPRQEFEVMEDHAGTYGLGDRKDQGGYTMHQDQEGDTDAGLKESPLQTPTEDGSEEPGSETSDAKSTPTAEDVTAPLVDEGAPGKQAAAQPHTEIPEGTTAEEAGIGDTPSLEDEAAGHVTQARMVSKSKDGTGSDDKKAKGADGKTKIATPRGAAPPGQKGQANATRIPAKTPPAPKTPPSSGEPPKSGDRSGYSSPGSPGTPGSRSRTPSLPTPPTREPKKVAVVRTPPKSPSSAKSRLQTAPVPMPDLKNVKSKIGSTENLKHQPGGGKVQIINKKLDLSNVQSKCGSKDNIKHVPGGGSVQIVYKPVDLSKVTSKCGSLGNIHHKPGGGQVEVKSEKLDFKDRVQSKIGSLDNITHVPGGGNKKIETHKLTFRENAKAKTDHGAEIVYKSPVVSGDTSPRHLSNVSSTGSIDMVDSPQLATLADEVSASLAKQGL

COc1cc(/C=C/C(=O)CC(=O)/C=C/c2ccc(O)c(OC)c2)ccc1O [curcumin]
tau oligomer level, T22 immunoreactivity, direct ELISA: significant decrease in T22 immunoreactivity; also recorded: significant decrease in oligomers

From patent US12391657B2, “Small molecules that bind and/or modulate differentforms of tau oligomers” (The Board of Regents of the University of Texas System, priority 2019, dated 2025)
